Measurements taken from patent publication US10752587B2, “Homobispiperidinyl derivatives as liver X receptor beta agonists, compositions and their use” (Merck Sharp & Dohme Corp., priority 2015, dated 2020).
Like-named read-outs stand apart in the source and are kept apart here.

Legend:
[1] = molecular target: T1, glutathione-S-transferase (GST) tagged LXRbeta LBD (ligand binding domain) (Homo sapiens, UniProt P55055); assay: LanthaScreen TR-FRET Liver X Receptor Coactivator Assay, co-activator recruitment to LXRbeta LBD; type: biochemical
T1 construct: purchased Invitrogen pv4658.pps
T1 sequence (P55055 222-460 limits assumed): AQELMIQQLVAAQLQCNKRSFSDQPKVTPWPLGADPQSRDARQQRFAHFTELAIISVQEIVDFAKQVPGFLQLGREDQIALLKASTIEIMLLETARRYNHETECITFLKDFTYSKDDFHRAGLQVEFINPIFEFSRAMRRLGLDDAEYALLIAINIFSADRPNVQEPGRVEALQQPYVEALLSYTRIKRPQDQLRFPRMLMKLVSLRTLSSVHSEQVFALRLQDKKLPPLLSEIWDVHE
Procedure, shortened: (§1)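 Efficacy (Emax) and inflection-point potency were scaled to reference agonist T0901317, acting on both LXR subtypes. Ligand-driven coactivator peptide recruitment was detected by TR-FRET after room-temperature incubation with terbium anti-GST antibody.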

[2] = molecular target: T2, glutathione-S-transferase (GST) tagged LXRalpha LBD (ligand binding domain) (Homo sapiens, UniProt Q13133); assay: LanthaScreen TR-FRET Liver X Receptor Coactivator Assay, co-activator recruitment to LXRalpha LBD; type: biochemical
T2 construct: purchased Invitrogen pv4655
T2 sequence (Q13133 209-447 limits assumed): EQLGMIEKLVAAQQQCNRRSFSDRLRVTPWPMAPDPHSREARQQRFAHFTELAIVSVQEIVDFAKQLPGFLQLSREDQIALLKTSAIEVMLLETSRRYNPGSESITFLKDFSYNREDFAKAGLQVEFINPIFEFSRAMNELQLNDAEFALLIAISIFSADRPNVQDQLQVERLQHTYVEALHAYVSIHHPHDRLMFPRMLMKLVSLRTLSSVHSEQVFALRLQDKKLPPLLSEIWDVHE
Procedure, shortened: as §1

[3] = efficacy at max dose, in relation to reference dual agonist T0901317, read-out: LXR beta Activity @ max dose (%)
[4] = potency (Inflection Point, IP), co-activator recruitment to LXRbeta LBD, in relation to T0901317, read-out: LXR beta IP
[5] = efficacy at max dose, in relation to reference dual agonist T0901317, read-out: LXR alpha Activity @ max dose (%)
[6] = potency (Inflection Point, IP), co-activator recruitment to LXRalpha LBD, in relation to T0901317, read-out: LXR alpha IP
[7] = co-activator recruitment to GST-LXRbeta LBD, TR-FRET, read-out: LXR beta IP (Inflection Point, potency)
[8] = efficacy in relation to reference dual agonist T0901317, read-out: LXR beta Activity @ max dose
[9] = efficacy in relation to reference dual agonist T0901317, read-out: LXR alpha Activity @ max dose
[10] = potency (Inflection Point, IP), co-activator recruitment to LXRalpha LBD, in relation to T0901317

Row | Compound | Emax [1, 3] | EC50 [1, 4] | Emax [2, 5] | EC50 [2, 6] | EC50 [1, 7] | Emax [1, 8] | EC50 ([2]; co-activator recruitment to GST-LXRalpha LBD, TR-FRET, read-out: LXR alpha IP (Inflection Point, potency)) | Emax [2, 9] | LXR alpha IP (nM) [2, 10] | LXR alpha IP (Inflection Point, potency) ([2]; co-activator recruitment to GST-LXRalpha LBD, TR-FRET)
1 | CN(C)C(=O)c1ccc(N2CCC(CC3CCN(C(=O)[C@](O)(c4cccc(OC(F)F)c4)C(F)(F)F)CC3)CC2)cc1Cl [Example 2-116, 2-chloro-4-{4-[(1-{(2R)-2-[3-(difluoro-methoxy)phenyl]-3,3,3-trifluoro-2-hydroxy-propanoyl}piperidin-4-yl)methyl]piperidin-1-yl}-N,N-dimethyl-benzamide] | 58% | 7 nM | 20% | 227 nM | – | – | – | – | – | –
2 | O=C(c1ccc(N2CCC(CC3CCN(C(=O)[C@](O)(c4ccccc4)C(F)(F)F)CC3)CC2)cc1Cl)N1CCC(c2ccncc2)C1 (stereo partly drawn) [Example 4-17, (2R)-3-{4-[(1-{3-chloro-4-[(3-pyridin-4-ylpyrrolidin-1-yl)carbonyl]phenyl}piperidin-4-yl)methyl]piperidin-1-yl}-1,1,1-trifluoro-3-oxo-2-phenylpropan-2-ol] | 45% | 270 nM | 27% | 1020 nM | – | – | – | – | – | –
3 | CN(C)C(=O)c1ncc(N2CCC(CC3CCN(C(=O)C(O)(c4cccc(F)c4)C(F)(F)F)CC3)CC2)cc1Cl (stereo not drawn) [Example 2-7, 3-chloro-N,N-dimethyl-5-[4-({1-[3,3,3-trifluoro-2-(3-fluorophenyl)-2-hydroxy-propanoyl]piperidin-4-yl}methyl)piperidin-1-yl]pyridine-2-carboxamide] | 80% | 17 nM | 30% | 464 nM | – | – | – | – | – | –
4 | CCc1cccc([C@@](O)(C(=O)N2CCC(CC3CCN(c4ccc(C(=O)N(C)C)c(Cl)c4)CC3)CC2)C(F)(F)F)c1 [Example 2-113, 2-chloro-4-[4-({1-[(2R)-2-(3-ethyl-phenyl)-3,3,3-trifluoro-2-hydroxy-propanoyl]piperidin-4-yl}methyl)piperidin-1-yl]-N,N-dimethyl-benzamide] | 36% | 15 nM | 4% | – | – | – | – | – | NO IP | –
5 | COc1cccc(C(O)(C(=O)N2CCC(OC3CCN(c4ccc(C(=O)N(C)C)c(Cl)c4)CC3)CC2)C(F)(F)F)c1 (stereo not drawn) [Example 2-26, 2-chloro-N,N-dimethyl-4-[4-({1-[3,3,3-trifluoro-2-hydroxy-2-(3-methoxyphenyl)propanoyl]piperidin-4-yl}oxy)piperidin-1-yl]benzamide] | 68% | 23 nM | 0% | – | – | – | – | – | NO IP | –
6 | COc1cccc([C@@](O)(C(=O)N2CCC(CC3CCN(c4ccc(C(=O)N(C)C)c(Cl)c4)CC3)CC2)C(F)(F)F)c1 (single isomer, unassigned) [Example 2-34] | 69% | 494 nM | 1% | – | – | – | – | – | NO IP | –
7 | Cc1cc(N2CCC(CC3(C)CCN(C(=O)[C@](O)(c4cccc(OC(C)C)c4)C(F)(F)F)CC3)CC2)ccc1C(=O)N(C)C [Example 2-77, N,N,2-trimethyl-4-{4-[(4-methyl-1-{(2R)-3,3,3-trifluoro-2-hydroxy-2-[3-(1-methylethoxy)phenyl]propanoyl}piperidin-4-yl)methyl]piperidin-1-yl}benzamide] | 44% | 45 nM | 2% | – | – | – | – | – | NO IP | –

The next lines start with the values.

Row | Emax [1, 3] | EC50 [1, 4] | Emax [2, 5] | EC50 [2, 6] | EC50 [1, 7] | Emax [1, 8] | EC50 ([2]; co-activator recruitment to GST-LXRalpha LBD, TR-FRET, read-out: LXR alpha IP (Inflection Point, potency)) | Emax [2, 9] | LXR alpha IP (nM) [2, 10] | LXR alpha IP (Inflection Point, potency) ([2]; co-activator recruitment to GST-LXRalpha LBD, TR-FRET) | Compound
8 | 98% | 7 nM | 20% | 243 nM | – | – | – | – | – | – | CNC(=O)c1ccc(N2CCC(CC3CCN(C(=O)[C@](O)(c4cc(F)cc(OC)c4)C(F)(F)F)CC3)CC2)cc1Cl [Example 7-118, 2-chloro-N-methyl-4-[4-({1-[(2R)-3,3,3-trifluoro-2-(3-fluoro-5-methoxyphenyl)-2-hydroxypropanoyl]piperidin-4-yl}methyl)piperidin-1-yl]benzamide]
9 | – | – | – | – | 43 nM | 95% | 935 nM | 46% | – | – | CN(C)C(=O)c1ccc(N2CCC(CC3CCN(S(=O)(=O)c4ccccc4F)CC3)CC2)cc1Cl [Example 13-8, 2-chloro-4-[4-({1-[(2-fluorophenyl)sulfonyl]-piperidin-4-yl}methyl)-piperidin-1-yl]-N,N-dimethylbenzamide]
10 | 65% | 66 nM | 8% | – | – | – | – | – | NO IP | – | COc1cccc([C@@](O)(C(=O)N2CCC(CC3(C)CCN(c4ccc(C(=O)N(C)C)c(C)n4)CC3)CC2)C(F)(F)F)c1 [Example 7-16, N,N,2-trimethyl-6-[4-methyl-4-({1-[(2R)-3,3,3-trifluoro-2-hydroxy-2-(3-methoxyphenyl)propanoyl]piperidin-4-yl}methyl)piperidin-1-yl]pyridine-3-carboxamide]
11 | 93% | 47 nM | 34% | 2940 nM | – | – | – | – | – | – | COc1cccc([C@@](O)(C(=O)N2CCC(OC3CCN(c4ccc(C(=O)N(C)C)c(OC)n4)CC3)CC2)C(F)(F)F)c1 [Example 7-154, 2-methoxy-N,N-dimethyl-6-[4-({1-[(2R)-3,3,3-trifluoro-2-hydroxy-2-(3-methoxyphenyl)propanoyl]piperidin-4-yl}oxy)piperidin-1-yl]pyridine-3-carboxamide]
12 | 53% | 8 nM | 13% | – | – | – | – | – | NO IP | – | CN(C)C(=O)c1ccc(N2CCC(CC3CCN(C(=O)C(O)(c4cc(Cl)cc(Cl)c4)C(F)(F)F)CC3)CC2)nc1Cl (stereo not drawn) [Example 7-83, 2-chloro-6-[4-({1-[2-(3,5-dichlorophenyl)-3,3,3-trifluoro-2-hydroxypropanoyl]piperidin-4-yl}methyl)piperidin-1-yl]-N,N-dimethylpyridine-3-carboxamide]
13 | 104% | 9 nM | 54% | 94 nM | – | – | – | – | – | – | CNC(=O)c1ccc(N2CCC(CC3CCN(C(=O)C(O)(c4cc(F)cc(F)c4)C(F)(F)F)CC3)CC2)cc1Cl (stereo not drawn) [Example 7-122, 2-chloro-4-[4-({1-[2-(3,5-difluorophenyl)-3,3,3-trifluoro-2-hydroxypropanoyl]piperidin-4-yl}methyl)piperidin-1-yl]-N-methylbenzamide]
14 | 74% | 9 nM | 52% | 58 nM | – | – | – | – | – | – | NC(=O)c1ccc(N2CCC(CC3CCN(C(=O)[C@](O)(c4ccccc4)C(F)(F)F)CC3)CC2)cc1Cl [Example 12-2, 2-chloro-4-[4-({1-[(2R)-3,3,3-trifluoro-2-hydroxy-2-phenyl-propanoyl]piperidin-4-yl}methyl)piperidin-1-yl]benzamide]
15 | 36% | 1290 nM | 0% | – | – | – | – | – | NO IP | – | CCOc1cccc([C@@](O)(C(=O)N2CCC(CC3CN(c4ccc(C(=O)N(C)C)c(C5CC5)n4)C3)CC2)C(F)(F)F)c1 [Example 7-17, 2-cyclopropyl-6-[3-({1-[(2R)-2-(3-ethoxyphenyl)-3,3,3-trifluoro-2-hydroxypropanoyl]piperidin-4-yl}methyl)azetidin-1-yl]-N,N-dimethylpyridine-3-carboxamide]
16 | 91% | 1430 nM | 0% | – | – | – | – | – | NO IP | – | COc1cccc([C@@](O)(C(=O)N2CCC(CC3CN(c4ccc(C(=O)N(C)C)c(C5CC5)n4)C3)CC2)C(F)(F)F)c1 [Example 7-15, 2-cyclopropyl-N,N-dimethyl-6-[3-({1-[(2R)-3,3,3-trifluoro-2-hydroxy-2-(3-methoxyphenyl)propanoyl]piperidin-4-yl}methyl)azetidin-1-yl]pyridine-3-carboxamide]
17 | 123% | 16 nM | 39% | 438 nM | – | – | – | – | – | – | COc1ccccc1C1(C(=O)N2CCC(CC3CCN(c4ccc(C(=O)N(C)C)c(Cl)n4)CC3)CC2)CCC1 [Example 7-57, 2-chloro-6-{4-[(1-{[1-(2-methoxyphenyl)cyclobutyl]carbonyl}piperidin-4-yl)methyl]piperidin-1-yl}-N,N-dimethylpyridine-3-carboxamide]
18 | – | – | – | – | 75 nM | 41% | – | 12% | – | NO IP | CN(C)C(=O)c1ccc(N2CCC(CC3CCN(S(=O)(=O)c4cc(F)cc(F)c4)CC3)CC2)cc1Cl [Example 13-6, 2-chloro-4-[4-({1-[(3,5-difluorophenyl)-sulfonyl]piperidin-4-yl}methyl)piperidin-1-yl]-N,N-dimethylbenzamide]
